Values quoted from earlier work, collected in patent publication EP0188214A2, “Novel growth hormone-releasing peptides and method of treating mammals therewith” (The Administrators of The Tulane University Educational Fund, priority 1985, dated 1986).
Ends that are not written are not given here.

System: rat anterior pituitary
Settings: rat anterior pituitary in vitro and in vivo; literature

In the case of “hp GRF(1-29)-NH2: synthetic amidated fragment of the natural hp GRF (YADAIFTNSYRKVLGQLSARKLLQDIMSR-NH2; UniProt P01286 32-60, looked up, fragment)”, the “growth hormone(GH)-releasing activity” value is given as “full intrinsic biological activity”.
In the case of “hpGRF: growth hormone-releasing factors (GRF) of human pancreatic islet tumor origin (YADAIFTNSYRKVLGQLSARKLLQDIMSRQQGESNQERGARARL; ends and bridges not checked; UniProt P01286 32-75, looked up)”, the “growth hormone(GH)-releasing activity” value is listed as “possess growh hormone(GH)-releasing activity”.
